Reference: patent US9974782B2, “Phosphodiesterase inhibitors and uses thereof” (THE TRUSTEES OF COLUMBIA UNIVERSITY IN THE CITY OF NEW YORK, priority 2008, dated 2018)
Entries after “also recorded” stand apart in the source; their conditions may differ.

How the values were obtained:
[1] = test system: CA1 region of hippocampal slices from APP/PS1 and WT mice; test: Electrophysiological analysis (BST, LTP) of hippocampal slices perfused with inhibitor; type: cell-based, mouse; details: for effect on LTP impairment in words: slices from APP/PS1 (transgenic) mice, 10 min prior to tetanus
[2] = test system: hippocampal slices treated with Aβ42; test: LTP in hippocampal slices treated with 200 nM oligomeric Aβ42; type: cell-based, mouse; details: YF012403 50 nM for 10 min prior to the θ-burst
Description: Following cutting hippocampal slices were transferred to a recording chamber where they were maintained at 29° C. and perfused with artificial cerebrospinal fluid (ACSF) continuously bubbled with 95% O2 and 5% CO2. The ACSF composition in mM was: 124.0 NaCl, 4.4 KCl, 1.0 Na2HPO4, 25.0 NaHCO3, 2.0 CaCl2, 2.0 MgSO4, 10.0 glucose. CA1 fEPSPs were recorded by placing both the stimulating and the recording electrodes in CA1 stratum radiatum. BST was assayed either by plotting the stimulus voltages against slopes of fEPSP, or by plotting the peak amplitude of the fiber volley against the slope of the fEPSP. A 15 min baseline was recorded every min at an intensity that evokes a response ˜35% of the maximum evoked response. LTP was induced using q-burst stimulation (4 pulses at 100 Hz, with the bursts repeated at 5 Hz and each tetanus including 3 ten-burst trains separated by 15 sec). Responses were recorded for 1 hr after tetanization and measured as field-excitatory-post-synaptic potential (fEPSP) slope expressed as percentage of baseline.
In these experiments YF012403 (the cyclopropyl lead compound) was directly given to the hippocampal slices through the perfusion system for 10 min prior to the theta burst. Aβ42 was given for 20 minutes prior to the theta burst. Oligomeric Aβ42 was prepared as described previously (Stine et al., 2003). […]

[3] = Pharmacokinetics testing, plasma and brain (LC-MS/MS)
Description: The pharmacokinetic studies were conducted in male BABL/c mice. The blood and brain samples were collected at predetermined times from three mice per time point. […] An LC-MS/MS method was developed to determine these compounds in plasma and brain samples.
Quantification was achieved by the internal standard method using peak area ratios of the analysis to the internal standard in plasma and brain. Concentrations were calculated using a weighted least-squares linear regression (W=1/×2). The major pharmacokinetic parameters were calculated and the brain-to-plasma distribution ratios were estimated.
The PDE5 inhibitor was prepared by dissolving the test article in 0.5% methyl cellulose to yield final concentrations at 5 mg/mL for PO administration.
Mice were sacrificed by cervical dislocation after blood harvest. The plasma were separated via centrifugation (4° C., 3500 rpm, 10 min) and stored in −80° C. before analysis.
Frozen unknown plasma samples were thawed at room temperature and vortexed thoroughly. With a pipette, 25 μL of plasma was transferred into a 1.5 mL Eppendorf tube. To each sample, 25 μL of methanol and 25 μL of the internal standard were added, followed by the addition of 100-μL methanol. The sample mixture was vortexed for approximately 1 min. After centrifugation at 11000 g for 5 min, the upper organic layer was transferred to a glass tube and evaporated at 40° C. under a gentle stream of nitrogen. Residues were dissolved in 150 μL of the mobile phase, and mixed in a vortex mixer. A 20-μL aliquot of the resulting solution was injected onto the LC/MS/MS system for analysis.
Brains were collected immediately after mice death. The brains were excised, weighed, and rinsed by cold saline and then frozen at −80° C. until further process for LC/MS/MS analysis.
On the day of the assay, the frozen tissue samples were thawed unassisted at room temperature. When completely thawed, each tissue sample of 200 mg was weighed and placed into a plastic tube. Methanol (1.0 mL) was added to facilitate homogenization, which was conducted using a Fluko F6/10 superfine homogenizer for approximately 1 min. Then, the homogenized samples were vortexed for 1 min. A 25-μL aliquot of the homogenized samples was transferred into an Eppendorf tube. To each sample, 25 μL of methanol and 25 μL of the internal standard were added. The sample mixture centrifuged at 11000 g for 5 min. A 20-μL aliquot of the supernatants was diluted to 80 μL or 60 μL with the mobile phase and a 10-μL aliquot was injected onto the LC/MS/MS system for analysis.
We then investigated the PK and BBB penetration capability of YF012403. After p.o. administration at 50 mg/kg to BABL/c mice, plasma and brain concentrations were determined by the LC-MS/MS.

[4] = male, BABL/c, mouse, in vivo, po, 50 mg/kg, half-life in the brain
[5] = male, BABL/c, mouse, in vivo, po, 50 mg/kg, half-life in the plasma
[6] = APP/PS1 slices, sildenafil 50 nM
[7] = WT slices, 120 min after tetanus, sildenafil 50 nM, tadalafil 50 nM, IC354 1 μM
[8] = WT slices, sildenafil or tadalafil 50 nM
[9] = slices of 3-month-old APP/PS1 mice, 120 min after tetanus, 10 min perfusion (sildenafil 50 nM, tadalafil 50 nM, IC354 1 μM)

Row | Compound | effect on LTP impairment in words [1] | effect on LTP deficit in Aβ42-treated slices in words [2] | Kp ([3]; male, BABL/c, mouse, brain, oral, 50 mg/kg) | Cmax ([3]; male, BABL/c, mouse, in vivo, po, 50 mg/kg) | half-life [3, 4] | half-life [3, 5] | log BB ([3]; mouse, in vivo) | time of peak plasma concentration after dosing ([3]; p.o., 50 mg/kg, BABL/c mice) | basal neurotransmission without tetanus as % of vehicle-treated WT slices [1, 6] | basal neurotransmission without tetanus, fEPSP % of baseline [1, 6] | LTP, fEPSP slope as % of baseline [1, 7] | level of LTP as % of vehicle-treated WT slices [1, 7] | basal synaptic responses without tetanus as % of vehicle-treated WT slices [1, 8] | basal synaptic responses without tetanus, fEPSP % of baseline [1, 8] | minimum effective dose that completely rescues synaptic plasticity ([1]; slices of 3-month-old APP/PS1 mice) | LTP, fEPSP slope as % of baseline [1, 9] | level of LTP as % of vehicle-treated WT littermates [1, 9] | LTP as % of vehicle-treated WT slices ([1]; slices of 6 month old APP/PS1 mice, 500 nM) | minimum effective dose that completely rescues LTP ([1]; slices of 6 month old APP/PS1 mice, 10 min bath application) | effect on BST (fEPSP slope) in words ([1]; slices of 6 month old APP/PS1 mice, different concentrations)
1 | COc1ccc(CNc2c(CO)cnc3c(C4CC4)cc(C#N)cc23)cc1Cl [YF012403, 4-(3-chloro-4-methoxybenzylamino)-8-cyclopropyl-3-(hydroxymethyl)-quinoline-6-carbonitrile] | rescues the defect in LTP | ameliorates the LTP deficit; also recorded: ameliorated; also recorded: reverses LTP impairment | 0.41 | 385 ng/g | 1.04 h | 1.33 h | −0.38 | 0.5 h |  |  |  |  |  |  |  |  |  |  |  | 
2 | CCCc1nn(C)c2c(=O)[nH]c(-c3cc(S(=O)(=O)N4CCN(C)CC4)ccc3OCC)nc12 [sildenafil, 5-[2-ethoxy-5-(4-methyl-1-piperazinylsulphonyl)phenyl]-1-methyl-3-n-propyl-1,6-dihydro-7H-pyrazolo[4,3-d]pyrimidin-7-one] | reverses LTP impairment |  |  |  | 0.84 h | 1.21 h |  |  | ~96% | 99.99±3.71% | 213.26±13.66% | ~99% | ~97% | 100.51±2.34% | 50 nM | 215.08±11.85% | ~100% | 93% | 500 nM | do not change fEPSP slope
